Measurements reported in patent US20240287089A1, “Preparation and Uses of 7-Azaindenoisoquinolines” (Purdue Research Foundation, priority 0001, published 2024).
Read-outs that look alike come from different tables or passages of the source.

Assays:
Caco-2 cells = experiment: Caco-2 permeability; format: in vitro ADME
Method: Caco-2 Permeability Studies. The Caco-2 plate was removed from the incubator and washed twice with pre-warmed HBSS (10 mM HEPES, pH 7.4), and then incubated at 37° C. for 30 min. The stock solutions of controls compounds were diluted in DMSO to get 1 mM solutions and then diluted with HBSS (10 mM HEPES, pH 7.4) to get 5 μM working solutions. The stock solutions of the test compounds were diluted in DMSO to get 1 mM solutions and then diluted with HBSS (10 mM HEPES, pH 7.4) to get 5 μM working solutions. The final concentration of DMSO in the incubation system was 0.5%. To determine the rate of drug transport in the apical to basolateral direction, 75 μL of 5 μM working solutions of test compounds was added to the Transwell insert (apical compartment) and the wells in the receiver plate (basolateral compartment) were filled with 235 μL of HBSS (10 mM HEPES, pH 7.4). To determine the rate of drug transport in the basolateral to apical direction, 235 μL of 5 μM working solutions of test compounds were to the receiver plate wells (basolateral compartment) and then the Transwell inserts (apical compartment) were filled with 75 μL of HBSS (10 mM HEPES, pH 7.4). Time 0 samples were prepared by transferring 50 μL of 5 μM working solution to wells of the 96-deepwell plate, followed by the addition of 200 μL cold methanol containing appropriate internal standards (IS). The plates were incubated at 37° C. for 2 h. […] An aliquot of 100 μL of the supernatant was mixed with an appropriate volume of ultra-pure water before LC-MS/MS analysis. To determine the Lucifer Yellow leakage after 2 h transport period, stock solution of Lucifer yellow was prepared in ultra-pure water and diluted with HBSS (10 mM HEPES, pH 7.4) to reach the final concentration of 100 μM and then 100 μL of the Lucifer yellow solution was added to each Transwell insert (apical compartment), followed by filling the wells in the receiver plate (basolateral compartment) with 300 μL of HBSS (10 mM HEPES, pH 7.4). The plates were incubated at 37° C. for 30 minutes. Samples (80 μL) were removed directly from the apical and basolateral wells (using the basolateral access holes) and transferred to wells of new 96 wells plates.

[1] = Maximum tolerated dose determination in NOD SCID mice; format: in vivo; conditions: QD x 5; for Body Weight %: 7 days after first dose
Method: Maximum Tolerated Dose Determinations. […]. […] Experiments involving 100 mg/kg doses of all three drugs were terminated after one day because of toxicity, while the study involving 50 mg/kg dose of G105 was also halted after one day (FIG. 12). Similarly, the investigation with a 40 mg/kg dose of G105 was discontinued after two days (FIG. 13).

[2] = format: in vivo
c-Myc [3] = experiment: Western blot of RS4;11 tumor xenograft tissue; format: in vivo, human
Source text: (§1) In several cases, the levels of c-Myc were more greatly depressed at the lower dose level. For examples, see the 9-hour data for G104 in Tables 17 and 18 and the 6-hour data in Table 19. […] Overall, there are many unexpected and unexplained aspects of the data in Tables 17-19, which are highly variable and also highly dependent on cell type. In particular, drug-induced increases in c-Myc expression relative to control and the larger changes in c-Myc expression seen at lower vs. higher doses are counterintuitive and unexplained.

c-Myc [4] = experiment: Western blot of RD-ES tumor xenograft tissue; format: in vivo, human
Source text: as §1

γ-H2AX = experiment: Western blot of RD-ES tumor xenograft tissue; format: in vivo, human
Source text: as §1

DU-145 (Prostate) = experiment: NCI-60 cytotoxicity assay; format: cell-based, human; conditions: Prostate DU-145, 48 h, read-out: Cytotoxicity GI50
Outline: (§2)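 Cells from the NCI-60 panel were exposed to compound at five concentrations spanning 100 μM to 10 nM for 48 h. Growth was measured by sulforhodamine B staining and percentage growth plotted against log concentration to give GI50.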

HCT-116 (Colon) = experiment: NCI-60 cytotoxicity assay; format: cell-based, human; conditions: Colon HCT-116, 48 h, read-out: Cytotoxicity GI50
Outline: as §2

HOP-62 (Lung) = experiment: NCI-60 cytotoxicity assay; format: cell-based, human; conditions: Lung HOP-62, 48 h, read-out: Cytotoxicity GI50
Outline: as §2

MCF7 (Breast) = experiment: NCI-60 cytotoxicity assay; format: cell-based, human; conditions: Breast MCF7, 48 h, read-out: Cytotoxicity GI50
Outline: as §2

OVCAR-3 (Ovarian) = experiment: NCI-60 cytotoxicity assay; format: cell-based, human; conditions: Ovarian OVCAR-3, 48 h, read-out: Cytotoxicity GI50
Outline: as §2

SN12C (Renal) = experiment: NCI-60 cytotoxicity assay; format: cell-based, human; conditions: Renal SN12C, 48 h, read-out: Cytotoxicity GI50
Outline: as §2

UACC-62 (Melanoma) = experiment: NCI-60 cytotoxicity assay; format: cell-based, human; conditions: Melanoma UACC-62, 48 h, read-out: Cytotoxicity GI50
Outline: as §2

SF-539 (CNS) = experiment: NCI-60 cytotoxicity assay; format: cell-based; conditions: Homo sapiens; CNS SF-539, 48 h; read-out: Cytotoxicity GI50
Outline: as §2

NCI-60 cancer cell lines = experiment: NCI-60 cytotoxicity assay, MGM; format: cell-based; conditions: Homo sapiens; read-out: MGM (average GI50 across NCI-60 panel)
Outline: as §2

[5] = human, 6 h, 1 μM
Method: (§3) Analysis of Plasma Protein Binding and Stability in Human and Mouse Blood Plasma by Equilibrium Dialysis. Frozen plasma (stored at −80° C.) was thawed immediately in a 37° C. water bath. The working solutions of test compound and control compound were prepared in DMSO at 200 μM concentration, and the working solutions were spiked into plasma. The final concentration of compound was 1 μM. The final concentration of DMSO was 0.5%. Ketoconazole was used as positive control in the assay. The dialysis membranes were soaked in ultrapure water for 60 min to separate strips, then in 20% ethanol for 20 min, and then finally in dialysis buffer for 20 min. For equilibrium dialysis, each cell contained plasma sample (150 μL) and was dialyzed against an equal volume of dialysis buffer (PBS). The assay was performed in duplicate. The dialysis plate was sealed and incubated at 37° C. with 5% CO2 at 100 rpm for 6 h. At the end of incubation, samples (50 μL) from both buffer and plasma chambers were transferred to wells of a 96-well plate. Plasma (50 μL) was added to each buffer sample and an equal volume of PBS was added to the collected plasma sample. Cold acetonitrile (400 μL) containing internal standards (IS, 100 nM alprazolam, 200 nM labetalol, 200 nM imipramine and 2 μM ketoprofen) was added to precipitate protein and release compounds. Samples were vortexed for 2 min and centrifuged for 30 min at 3,220 g. An aliquot (100 μL) of the supernatant was diluted with ultra-pure H2O (100 μL), and the mixture was used for LC-MS/MS analysis. For stability determination in plasma, a spiked plasma sample (50 μL) was transferred to a new plate and incubated at 37° C., 5% CO2 for 0 and 6 h. At designated time points, PBS (50 μL) was added and mixed thoroughly, followed by the addition of room temperature quench solution [400 μL of acetonitrile containing internal standards (IS, 100 nM alprazolam, 200 nM labetalol, 200 nM imipramine and 2 μM ketoprofen)] to precipitate protein and release compounds. Samples were vortexed for 2 min and centrifuged for 30 min at 3,220 g. An aliquot (400 μL) of the supernatant was diluted by ultra-pure H2O, and the mixture was used for LC-MS/MS analysis. The concentrations of test compounds in the buffer and plasma chambers were determined from peak area ratios.

[6] = mouse, 6 h, 1 μM
Method: as §3

in vivo = conditions: male, CD1, mouse, iv, 20 mg/kg
Method: Brain Penetration Studies. […] The concentrations were determined by LC-MS/MS with direct measurement of the plasma samples. The brain tissue was homogenized with water using a 3:1 ratio of water (mL) to brain (g) before determination of the concentrations (ng/mL) in the brain homogenates, and the homogenate values then were multiplied by a factor of 4 to obtain the brain concentrations (ng/g).

## COc1cc2c3c(n(CCCNCCO)c(=O)c2cc1OC)-c1nc2c(cc1C3=O)OCO2 [G105, 6-(3-((2-Hydroxyethyl)amino)propyl)-2,3-dimethoxy-5H-[1,3]dioxolo[4″,5″:5′,6′]pyrido[3′,2′:4,5]cyclopenta[1,2-c]isoquinoline-5,12(6H)-dione]
Caco-2 cells; Caco-2
  Efflux Ratio: 7.60
  Recovery (%)AP-BL: 75.07%
  Recovery (%)BL-AP: 95.77%
Caco-2 cells; Caco-2, 5 μM, 2 h
  Papp (A→B): 2.39 10^−6, cm/s
  Papp (B→A): 18.16 10^−6, cm/s
[1]; 5 mg/Kg IV
  Body Weight %: 97.2%
[1]; 10 mg/Kg IV
  Body Weight %: 95.5%
[1]; 15 mg/Kg IV
  Body Weight %: 79.2%
[1]; 20 mg/Kg IV
  Body Weight %: 82%
[1]; 30 mg/Kg IV
  Body Weight %: 74.7%
[1]; NOD SCID mice, IV, body weight % ≥80%
  Maximum tolerated dose (MTD): 20 mg/kg
[2]; MOLT-4, 3 h, IV 10 mg/kg
  Mean Tumor/Plasma Ratio: 50 ± 13.4
[2]; MOLT-4, 9 h, IV 10 mg/kg
  Mean Tumor/Plasma Ratio: 357 ± 180
[2]; MOLT-4, 9 h, IV 20 mg/kg
  Mean Tumor/Plasma Ratio: 326 ± 102
c-Myc [3]; RS4;11, IV 10 mg/kg, 3 h
  c-Myc/GAPDH, % Relative to Vehicle: 102.74 ± 3.45%
c-Myc [3]; RS4;11, IV 10 mg/kg, 9 h
  c-Myc/GAPDH, % Relative to Vehicle: 74.98 ± 3.52%
c-Myc [3]; RS4;11, IV 20 mg/kg, 3 h
  c-Myc/GAPDH, % Relative to Vehicle: 100.30 ± 16.76%
c-Myc [3]; RS4;11, IV 20 mg/kg, 9 h
  c-Myc/GAPDH, % Relative to Vehicle: 80.45 ± 3.93%
c-Myc [4]; IV 10 mg/kg, 3 h
  c-Myc/GAPDH, % Relative to Vehicle: 128.18 ± 13.67%
c-Myc [4]; IV 10 mg/kg, 6 h
  c-Myc/GAPDH, % Relative to Vehicle: 69.45 ± 15.02%
c-Myc [4]; IV 20 mg/kg, 3 h
  c-Myc/GAPDH, % Relative to Vehicle: 154.98 ± 17.80%
c-Myc [4]; IV 20 mg/kg, 6 h
  c-Myc/GAPDH, % Relative to Vehicle: 71.97 ± 14.55%
γ-H2AX; IV 10 mg/kg, 3 h
  γ-H2AX/GAPDH, % Relative to Vehicle: 145.80 ± 32.79%
γ-H2AX; IV 10 mg/kg, 6 h
  γ-H2AX/GAPDH, % Relative to Vehicle: 111.73 ± 14.44%
γ-H2AX; IV 20 mg/kg, 3 h
  γ-H2AX/GAPDH, % Relative to Vehicle: 134.62 ± 18.03%
γ-H2AX; IV 20 mg/kg, 6 h
  γ-H2AX/GAPDH, % Relative to Vehicle: 109.81 ± 27.72%
DU-145 (Prostate); Homo sapiens
  GI50: 2710 nM
DU-145 (Prostate)
  GI50: 2710 nM
HCT-116 (Colon)
  GI50: 1250 nM
HCT-116 (Colon); Homo sapiens
  GI50: 1250 nM
HOP-62 (Lung); Homo sapiens
  GI50: 420 nM
HOP-62 (Lung)
  GI50: 420 nM
MCF7 (Breast)
  GI50: 260 nM
MCF7 (Breast); Homo sapiens
  GI50: 260 nM
OVCAR-3 (Ovarian); Homo sapiens
  GI50: 5650 nM
OVCAR-3 (Ovarian)
  GI50: 5650 nM
SN12C (Renal); Homo sapiens
  GI50: 3940 nM
SN12C (Renal)
  GI50: 3940 nM
UACC-62 (Melanoma); Homo sapiens
  GI50: 2380 nM
UACC-62 (Melanoma)
  GI50: 2380 nM
SF-539 (CNS)
  GI50: 1000 nM
NCI-60 cancer cell lines
  GI50: 2950 nM
[5]
  % Recovery: 99.38%
[5]; plasma
  % Bound: 80.88%
[6]
  % Recovery: 90.43%
[6]; plasma
  % Bound: 79.41%
In vivo
  Vd: 29 L/kg
